The subject of assay [1] is CHEAL (Lambsquarters, Common). In words: Postemergence herbicidal evaluation. It is filed as in vivo, Chenopodium album. Conditions: for CHEAL herbicidal rating: postemergence. The essentials:
(§1)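 Visual 0-9 injury score (stand, vigor, malformation, size, chlorosis, appearance vs untreated) taken four to five weeks post-spray, averaged across repeat tests. Test plants about two weeks old; foliar spray of acetone/water (1:1) with 0.5% surfactant delivering ~0.0156-0.500 kg active/ha.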

The subject of assay [2] is IPOHE (Morningglory, Ivyleaf). The assay can be described thus: Postemergence herbicidal evaluation. It is filed as in vivo, Ipomoea hederacea. The following applies: for IPOHE herbicidal rating: postemergence. The essentials:
as §1

Another assay has as its system GALAP (Galium). In words: Preemergence herbicidal evaluation. It is filed as in vivo, Galium aparine. Conditions: rated 4-5 weeks after treatment. The method in brief:
(§2)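 Seeds were planted in potting soil in cups, then sprayed preemergence with the test compound in aqueous acetone at about 0.0156 to 0.500 kg per hectare. Cups were kept under greenhouse conditions and visually rated 4–5 weeks after treatment on a 0–9 scale against an untreated control.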

The next assay has as its system ECHCG (Barnyardgrass). In words: Preemergence herbicidal evaluation. It is filed as in vivo, Echinochloa crus-galli. Conditions: rated 4-5 weeks after treatment. The essentials: as §2
The subject of assay [3] is GLXMAW (Soybean, Williams). In words: Preemergence herbicidal evaluation. It is filed as in vivo, Glycine max, (L.) Merr. cv Williams. Conditions: rated 4-5 weeks after treatment. The method in brief: as §2
In the next assay the test system is MOOVA (Monochoria). In words: Postemergence weed control under flooded paddy conditions. In kind it is in vivo, Monochoria vaginalis. The following applies: postemergence weeds, 3-4 weeks after treatment. The essentials:
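Containers holding 3–5 cm weeds and rice at 1.5–2.5 leaves are flooded to 1.5–3 cm above soil. Compound in 50/50 v/v aqueous/acetone is then added directly to the water, about 0.0313–0.500 kg/ha. Plants are kept in the greenhouse and rated 0–9 visually at 3–4 weeks.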

This note sets out measurements from patent US20020137929A1, “1 - (3-heterocyclylphenyl) isothiourea, -isourea, -guanidine and -amidine herbicidal agents” (Intellectual Property Department, BASF Aktiengesellschaft, priority 1998, published 2002).

Regarding `C=CCN1C(=O)CSC1=Nc1cc(-n2c(=O)cc(C(F)(F)F)n(C)c2=O)c(F)cc1Cl` [Compound 27], the CHEAL herbicidal rating was found to be 6.0 in assay [1] (rate 0.0158 kg/ha), 6.0 in assay [1] (rate 0.0315 kg/ha) and 9.0 in assay [1] (rate 0.0630 kg/ha). For the same compound, the IPOHE herbicidal rating in assay [2] (rate 0.0158 kg/ha), in assay [2] (rate 0.0315 kg/ha) and in assay [2] (rate 0.0630 kg/ha) was 9.0 throughout. Besides, the “Preemergence herbicidal rating GALAP” value was 0.0 with GALAP (Galium) (rate 0.0156 kg/ha); 9.0 with GALAP (Galium) (rate 0.0313 kg/ha); 9.0 in the assay with GALAP (Galium) (rate 0.0625 kg/ha); 9.0 in the assay with GALAP (Galium) (rate 0.1250 kg/ha); 9.0 with GALAP (Galium) (rate 0.2500 kg/ha). In addition, the “Preemergence herbicidal rating ECHCG” value is given as 0.0 with ECHCG (Barnyardgrass) (rate 0.0156 kg/ha); 8.0 in the assay with ECHCG (Barnyardgrass) (rate 0.0313 kg/ha); 9.0 in the assay on ECHCG (Barnyardgrass) (rate 0.0625 kg/ha); 9.0 in the assay with ECHCG (Barnyardgrass) (rate 0.1250 kg/ha); 9.0 in the assay with ECHCG (Barnyardgrass) (rate 0.2500 kg/ha). In addition, the “Preemergence herbicidal rating GLXMAW” value in assay [3] (rate 0.0156 kg/ha) is given as 0.0; in assay [3] (rate 0.0313 kg/ha), 0.0; in assay [3] (rate 0.0625 kg/ha), 9.0; in assay [3] (rate 0.1250 kg/ha), 9.0; in assay [3] (rate 0.2500 kg/ha), 7.0. Moreover, the “Herbicidal rating MOOVA” value in the assay on MOOVA (Monochoria) (rate 0.0313 kg/ha), in the assay with MOOVA (Monochoria) (rate 0.0625 kg/ha), with MOOVA (Monochoria) (rate 0.1250 kg/ha) and in the assay on MOOVA (Monochoria) (rate 0.2500 kg/ha) was 9.0 each time.
On to `COC(=O)CCN1C(=O)CSC1=Nc1cc(-n2c(=O)cc(C(F)(F)F)n(C)c2=O)c(F)cc1Cl` [Compound 28, Methyl 2-{{2-chloro-5-[3,6-dihydro-3-methyl-2,6-dioxo-4-(trifluoromethyl)-1(2H)-pyrimidinyl]-4-fluorophenyl}imino}-4-oxo-3-thiazolidinepropionate], for which the “Postemergence herbicidal rating CHEAL” value stood at 2.0 in assay [1] (Rate 0.0158 kg/ha), 4.0 in assay [1] (Rate 0.0315 kg/ha) and 4.0 in assay [1] (Rate 0.0630 kg/ha). Besides, the “Postemergence herbicidal rating IPOHE” value in assay [2] (Rate 0.0158 kg/ha), in assay [2] (Rate 0.0315 kg/ha) and in assay [2] (Rate 0.0630 kg/ha) was 9.0 throughout. In addition, the “Preemergence herbicidal rating GALAP” value in the assay with GALAP (Galium) (rate 0.0625 kg/ha) worked out at 0.0; with GALAP (Galium) (rate 0.1250 kg/ha), 0.0; in the assay on GALAP (Galium) (rate 0.2500 kg/ha), 9.0. Further, the entries for the “Preemergence herbicidal rating ECHCG” value with ECHCG (Barnyardgrass) (rate 0.0625 kg/ha), with ECHCG (Barnyardgrass) (rate 0.1250 kg/ha) and in the assay on ECHCG (Barnyardgrass) (rate 0.2500 kg/ha) were 0.0, 9.0 and 9.0, respectively. In addition, the “Preemergence herbicidal rating GLXMAW” value in assay [3] (rate 0.0625 kg/ha) stood at 3.0; in assay [3] (rate 0.1250 kg/ha) it was 5.0; in assay [3] (rate 0.2500 kg/ha), 9.0. Further, the “Herbicidal rating MOOVA” value in the assay on MOOVA (Monochoria) (rate 0.0313 kg/ha), with MOOVA (Monochoria) (rate 0.0625 kg/ha), in the assay on MOOVA (Monochoria) (rate 0.1250 kg/ha) and in the assay on MOOVA (Monochoria) (rate 0.2500 kg/ha) was 9.0 each time.
With `Cn1c(C(F)(F)F)cc(=O)n(-c2cc(N=C3SCC(=O)N3CC(=O)NS(C)(=O)=O)c(Cl)cc2F)c1=O` [Compound 38, 2-{{2-Chloro-5-[3,6-dihydro-3-methyl-2,6-dioxo-4-(trifluoromethyl)-1(2H)-pyrimidinyl]-4-fluoro-phenyl}imino}-N-(methylsulfonyl)-4-oxo-3-thiazolidineacetamide], the “Postemergence herbicidal rating CHEAL” value in assay [1] (Rate 0.0156 kg/ha) came to 1.0; in assay [1] (Rate 0.0313 kg/ha), 3.0; in assay [1] (Rate 0.0625 kg/ha), 4.0; in assay [1] (Rate 0.1250 kg/ha), 6.0; in assay [1] (Rate 0.2500 kg/ha), 9.0. Moreover, the “Postemergence herbicidal rating IPOHE” value in assay [2] (Rate 0.0156 kg/ha), in assay [2] (Rate 0.0313 kg/ha), in assay [2] (Rate 0.0625 kg/ha), in assay [2] (Rate 0.1250 kg/ha) and in assay [2] (Rate 0.2500 kg/ha) was 9.0 throughout. In addition, the “Preemergence herbicidal rating GALAP” value with GALAP (Galium) (rate 0.0313 kg/ha) is recorded as 0.0; in the assay on GALAP (Galium) (rate 0.0625 kg/ha) it was 5.0; with GALAP (Galium) (rate 0.1250 kg/ha), 8.0; in the assay on GALAP (Galium) (rate 0.2500 kg/ha), 9.0. Further, the “Preemergence herbicidal rating ECHCG” value in the assay on ECHCG (Barnyardgrass) (rate 0.0313 kg/ha) was determined as 0.0; in the assay on ECHCG (Barnyardgrass) (rate 0.0625 kg/ha), 0.0; with ECHCG (Barnyardgrass) (rate 0.1250 kg/ha), 0.0; in the assay with ECHCG (Barnyardgrass) (rate 0.2500 kg/ha), 1.0. Further, the “Preemergence herbicidal rating GLXMAW” value in assay [3] (rate 0.0313 kg/ha) stood at 0.0; in assay [3] (rate 0.0625 kg/ha), 2.0; in assay [3] (rate 0.1250 kg/ha) it was 2.0; in assay [3] (rate 0.2500 kg/ha), 6.0. Also, the “Herbicidal rating MOOVA” value in the assay on MOOVA (Monochoria) (rate 0.0313 kg/ha), in the assay on MOOVA (Monochoria) (rate 0.0625 kg/ha), in the assay with MOOVA (Monochoria) (rate 0.1250 kg/ha) and with MOOVA (Monochoria) (rate 0.2500 kg/ha) was 9.0 in each case.
For the compound `CCOC(=O)CN1C(=O)C(CC(=O)OCc2ccccc2)OC1=Nc1cc(-n2c(=O)cc(C(F)(F)F)n(C)c2=O)c(F)cc1Cl` (centres unmarked) [Compound 40, 2-{{2-Chloro-5-[3,6-dihydro-3-methyl-2,6-dioxo-4-(trifluoromethyl)-1(2H)-pyrimidinyl]-4-fluorophenyl}imino}-4-oxo-3,5-oxazolidinediacetic acid, 5-benzyl ethyl ester], the “Postemergence herbicidal rating CHEAL” value worked out at 2.0 in assay [1] (Rate 0.0158 kg/ha), 7.0 in assay [1] (Rate 0.0315 kg/ha) and 9.0 in assay [1] (Rate 0.0630 kg/ha). Further, the “Postemergence herbicidal rating IPOHE” value in assay [2] (Rate 0.0158 kg/ha), in assay [2] (Rate 0.0315 kg/ha) and in assay [2] (Rate 0.0630 kg/ha) was 9.0 each time. Further, the “Preemergence herbicidal rating GALAP” value in the assay on GALAP (Galium) (rate 0.0313 kg/ha), in the assay on GALAP (Galium) (rate 0.0625 kg/ha), in the assay with GALAP (Galium) (rate 0.1250 kg/ha) and in the assay on GALAP (Galium) (rate 0.2500 kg/ha) was 0.0 each time. The “Preemergence herbicidal rating ECHCG” value with ECHCG (Barnyardgrass) (rate 0.0313 kg/ha) is listed as 0.0; in the assay with ECHCG (Barnyardgrass) (rate 0.0625 kg/ha), 0.0; in the assay on ECHCG (Barnyardgrass) (rate 0.1250 kg/ha) it was 1.0; with ECHCG (Barnyardgrass) (rate 0.2500 kg/ha), 1.0. The “Preemergence herbicidal rating GLXMAW” value in assay [3] (rate 0.0313 kg/ha) worked out at 0.0; in assay [3] (rate 0.0625 kg/ha) it was 0.0; in assay [3] (rate 0.1250 kg/ha), 1.0; in assay [3] (rate 0.2500 kg/ha), 3.0. Besides, the “Herbicidal rating MOOVA” value in the assay with MOOVA (Monochoria) (rate 0.0313 kg/ha), in the assay on MOOVA (Monochoria) (rate 0.0625 kg/ha), in the assay with MOOVA (Monochoria) (rate 0.1250 kg/ha) and in the assay with MOOVA (Monochoria) (rate 0.2500 kg/ha) was 9.0 throughout.
Consider `CCOC(=O)CN1C(=O)C(CC(=O)O)O/C1=N/c1cc(-n2c(=O)cc(C(F)(F)F)n(C)c2=O)c(F)cc1Cl` (centres unmarked) [Compound 41, 2-{{2-Chloro-5-[3,6-dihydro-3-methyl-2,6-dioxo-4-(trifluoromethyl)-1(2H)-pyrimidinyl]-4-fluoro-phenyl}imino}-4-oxo-3,5-oxazolidinediacetic acid, 3-ethyl ester], for which the results for the “Postemergence herbicidal rating CHEAL” value in assay [1] (Rate 0.0158 kg/ha), in assay [1] (Rate 0.0315 kg/ha) and in assay [1] (Rate 0.0630 kg/ha) were 3.0, 7.0 and 9.0, respectively. Also, the “Postemergence herbicidal rating IPOHE” value in assay [2] (Rate 0.0158 kg/ha), in assay [2] (Rate 0.0315 kg/ha) and in assay [2] (Rate 0.0630 kg/ha) was 9.0 each time. Also, the “Preemergence herbicidal rating GALAP” value in the assay with GALAP (Galium) (rate 0.0156 kg/ha), in the assay with GALAP (Galium) (rate 0.0625 kg/ha), in the assay with GALAP (Galium) (rate 0.1250 kg/ha) and in the assay on GALAP (Galium) (rate 0.2500 kg/ha) was 0.0 each time. The “Preemergence herbicidal rating ECHCG” value in the assay on ECHCG (Barnyardgrass) (rate 0.0156 kg/ha) turned out to be 0.0; with ECHCG (Barnyardgrass) (rate 0.0313 kg/ha), 0.0; in the assay on ECHCG (Barnyardgrass) (rate 0.0625 kg/ha), 0.0; in the assay with ECHCG (Barnyardgrass) (rate 0.1250 kg/ha) it was 0.0; with ECHCG (Barnyardgrass) (rate 0.2500 kg/ha) it was 2.0. Further, the “Preemergence herbicidal rating GLXMAW” value stood at 0.0 in assay [3] (rate 0.0156 kg/ha); 1.0 in assay [3] (rate 0.0313 kg/ha); 3.0 in assay [3] (rate 0.0625 kg/ha); 2.0 in assay [3] (rate 0.1250 kg/ha); 6.0 in assay [3] (rate 0.2500 kg/ha). Further, the “Herbicidal rating MOOVA” value with MOOVA (Monochoria) (rate 0.0313 kg/ha) is listed as 6.0; in the assay with MOOVA (Monochoria) (rate 0.0625 kg/ha), 9.0; in the assay on MOOVA (Monochoria) (rate 0.1250 kg/ha) it was 9.0; with MOOVA (Monochoria) (rate 0.2500 kg/ha), 9.0.
